The values below come from US5439940A, “Benz[e]indene derivatives” (priority 1992, dated 1995).

Like-named read-outs stand apart in the source and are kept apart here.

One may read the LD50 as the dose expected to kill half of the subjects tested. The low end stands for greater toxicity, the high end for lower toxicity.

Data set [1] is described as follows: Acute toxicity on mice (oral LD50). As to conditions: mouse, in vivo, 7 days observation, maximal dose 1000 mg/kg. The protocol:
Mice belonging to the NMRI strain (body weight 20-25 g, both male and female) were used, 6 to 10 animals for each dose. The test compound was administered orally in a volume of 20 ml/kg. The applied maximal dose was 1000 mg/kg. […] The mice were kept in a plastic cage at room temperature. The animals got tap water and standard mouse fodder ad libitum. The toxicity data were determined by the aid of the method of Litchfield and Wilcoxon [Litchfield, J. T., Wilcoxon, F. W.: J. Pharmacol. Exp. Ther., 96, 99 (1949)].

Another data set deals with hexobarbital narcosis. Put plainly: Hexobarbital narcosis potentiating effect on mice. The data set is classed as in vivo, mouse. As to conditions: oral; for ED50: Mus musculus, 1 hour before hexobarbital 40 mg/kg i.v., sleeping time >2.5 times control, read-out: ED50 hexobarbital narcosis potentiation. The protocol: The hexobarbital narcosis potentiating effect was examined on mice. Groups consisting of 6 animals were used for each dose. The animals were treated orally with the test compound, whereby sleeping was induced 1 hour later by administering a 40 mg/kg i.v. dose of hexobarbital both to the test and control groups. […] ED50 values were calculated from the thus-transformed data [Kaergaard Nielsen C. et al., Arch. Int. Pharmacodyn. 2, 170 (1967)].

For another data set, the system named is pentetrazole spasm. Put plainly: Anticonvulsive activity: pentetrazole spasm inhibiting test. The data set is classed as in vivo, mouse (NMRI). The note with it: Mus musculus; mice, oral, 1 hour before pentetrazole 125 mg/kg i.p.; read-out: Inhibition of pentetrazole spasm, ED50. The protocol:
The pentetrazole spasm inhibiting test was performed according to the modified method of Benziger and Hans. Groups of mice consisting of 6 animals each, belonging to the NMRI strain (body weight: 20-25 g), were treated orally with the compound to be tested and the vehicle without active agent, respectively. I hour after the treatment a dosage of 125 mg/kg of pentetrazole was administered to each animal, intraperitoneally, and the tonic spasm of the lower limb extensor was recorded [Benziger, R., Hans, D.: Arch. Int. Pharmacodyn., 167, 245 (1967)].
(§1) The ED50 values were determined according to the method of Litchfield and Wilcoxon.

Data set [2] has as its system learned conditioned avoidance reflex. Put plainly: Antipsychotic effect: inhibition of conditioned avoidance reflex (shuttle box). The note with it: 1 h, read-out: Conditioned reflex ID50. The data set is classed as in vivo, rat (male Wistar). The protocol: The antipsychotic (neuroleptic) effect was measured by the inhibition of the learned conditioned avoidance reflex. The male Wistar rats used for the study were of 120-150 g bodyweight at the commencement of learning. […] In response to a suitable warning stimulus, in order to avoid the punishing (unconditioned) stimulus, animals within the box passed through the gate from one part over the other. The warning, i.e. conditioned stimulus (CS), a white light (1 Hz) blinking for 15 seconds, was applied at the place of the actual animal existence. The unconditioned stimulus (US), in form of 0.6 mA intensity electric shock, was randomly applied to the paw during the last 5 seconds of the conditioned stimulus. Animal's movement during the CS and US from one part of the box over the other, was defined as avoidance and escape responses, respectively. Both responses ceased the actual stimulus and stopped the trial. The time elapsed until the next trial (intertrial interval, ITI) was 15 seconds. While one experiment was carried out daily, an experiment consisted of 80 trials. Learning efficiency was expressed as percentage of the successful to the total avoidances. […] Dosing was carried out once a week, one hour before the measurement in the shuttle box.

A further data set has as its system catalepsy. Put plainly: Catalepsy. The data set is classed as in vivo, rat (Wistar). As to conditions: rat; for Catalepsy MED: scored from 60 minutes after dosing, four hours. The protocol:
The extrapyramidal syndrome, the most important side effect limiting the application of the neuroleptic drugs in man, can be produced in experimental animals in the form of catalepsy. Our experiments in 150-160 g Wistar rats were performed according to Morpurgo. The catalepsy, appearing 60 minutes after dosing, was scored as follows. Both forelegs of each animal were put for 10 seconds onto a rubber stopper of 3 cm height, then for additional 10 seconds onto a same stopper of 9 cm height. […] The procedure was repeated in each 30 minutes during four hours, obtaining scores proportional to the degree of the catalepsy. Results were used to calculate the minimum effective dose [MED, the lowest dose resulting statistically significant alteration, c.f.: Morpurgo, C.: Arch. Int.

The next data set concerns spontaneous motility. As to the kind of experiment: Spontaneous motility inhibiting activity (Dews equipment). Format: in vivo. The note with it: Mus musculus, 0.5 h; oral, beam interruptions within 30 minutes; read-out: Motility inhibiting activity ID50. The protocol: The spontaneous motility inhibiting activity was examined according to the method of Borsy et al. Groups consisting of 3 mice each were treated orally with different doses of the compounds to be tested, then the test animals were placed in a Dews equipment. In this equipment the number of interruptions of infrared beam within 30 minutes was counted. […] [Borsy, J., Csanyi, E., Lazar, I.: Arch. Int.. Pharmacodyn. 124, 1 (1960)].

The subject of data set [3] is acetic acid writhing reactions. Put plainly: Analgesic effect (acetic acid writhing, Newbould). The data set is classed as in vivo, mouse (NMRI). The note with it: Mus musculus, 1 h; mice, 0.75% acetic acid one hour after treatment; read-out: Analgesic effect ID50. The protocol: The characteristic "writhing reactions" were counted for a period of 5 minutes, starting from the fifth minute after challenge. […] Each group of animals consisted of at least 10 mice. […]

The test system of another data set is shocks tolerated. Put plainly: Anxiolytic effect (Vogel et al.). The data set is classed as in vivo, rat (male Wistar). The note with it: ip, 2 h; rat, intraperitoneal, two hours before testing; read-out: Anxiolytic effect MED. The protocol:
The anxiolytic effect was tested by using the method of Vogel et al. Male Wistar rats of 160-180 g bodyweight were kept free of food and drinking water for 24 and 48 hours, respectively. Test and carrier substances were administered intraperitoneally two hours before testing. Animals within the experimental chamber were provided with drinking water through an inserted tube. After the animals' each twenty lapping for water the device emitted a 2 mA intensity electric shock through the drinking tube. During 5 minutes the shocks tolerated by the animals in order to quench their thirst were counted. The effect of treatment was expressed as the % increase of the tolerated shocks. The minimum effective dose (MED) was determined for each test compound [Voqel, J. R., Beer, B., Clody, D. E.: Psychopharmacologia (Berl.) 21, 1 (1971)].

The next data set concerns nervus ischiadicus. As to the kind of experiment: Local analgesic effect (Truant d'Amato). The data set is classed as in vivo. As to conditions: 0.2 ml injected around nervus ischiadicus. The protocol:
The test was carried out according to the method of Truant d'Amato. 0.2 ml of test material was injected around the nervus ischiadicus in the middle of femur with a needle of 1 cm length. The criterion of analgesic effect was the lack of the motoric control of foot muscles. The duration of effect was registered and the 50 percentile effective concentration (EC50) was calculated on the basis of the dose-effect curve. Lidocain was used as reference substance Truant d'Amato, A. P., Wiedling, S.: Acta Chir. Scand., 116, 351 (1958)].

In another data set the test system is nicotine spasm. Put plainly: Anticonvulsive activity: inhibition of nicotine spasm and lethality. The data set is classed as in vivo. The note with it: Mus musculus, 1 h; mice, oral, one hour before nicotine 1.4 mg/kg i.v. The protocol:
The inhibition of nicotine spasm and lethality was examined on mice according to the method of Stone. One hour after the oral treatment a dosage of 1.4 mg/kg of nicotine is injected intravenously, and the spasm developed as well as the lethality within 1 hour were recorded at both the test and control groups. [Stone, C. C., Mecklenburg, K. L., Torchiana, M. L.: Arch. Int. Pharmacodyn., 117, 419 (1958)].
as §1

In data set [4] the test system is experimental coronary insufficiency. As to the kind of experiment: Antianginal effect (glanduitrine-induced coronary insufficiency, Nieschultz). The data set is classed as in vivo, rat (male). As to conditions: rat, glanduitrine 4 NE/kg i.v., T-wave; for inhibition in vivo at 2 mg/kg: Rat2, iv, read-out: Inhibition in a dose of 2 mg/kg. The protocol: The test was carried out on male rats weighing 180-220 g. The animals were narcotized with the aid of chloralose-urethane. ECG was registered by means of needle electrodes in standard II output. Antianginal effect was tested according to the method of Nieschultz. Experimental coronary insufficiency was induced by administering glanduitrine (4 NE/kg i.v.).

Take `CN(C)CCON=C1CCc2c1ccc1ccccc21` [Example 1, 3-[2-(N,N-Dimethylamino)-ethoxyimino]-2,3-dihydro-1H-benz[e]indene]: in data set [1], the median lethal dose (LD50) at 168 h came out at 820 mg/kg. Moreover, the “effect observed in the given dose, hexobarbital narcosis potentiation” value (“effect observed in the given dose” for short) in the data set on hexobarbital narcosis (dose 200 mg/kg) was found to be 100%.
As for `CN1C(=O)OC(C)(C)C1=O` [Trimethadione, reference compound], the ED50 with pentetrazole spasm turned out to be 400 mg/kg.
For the compound `CSc1ccc2c(c1)N(CCC1CCCCN1C)c1ccccc1S2` (stereo not shown) [Thioridazine], the ED50 in data set [2] (rat, dosing one hour before measurement) is 108 mg/kg. Moreover, in the data set with catalepsy, the “Therapeutic index (Catalepsy MED / Conditioned Reflex ID50)” value was found to be 0.7 and the “Catalepsy MED” value is 80 mg/kg.
Consider `COc1ccccc1N1CCN(CC(O)CON=C2CCc3c2ccc2ccccc32)CC1` (stereo not shown) [Example 19, 3-{3-[4-(2-Methoxyphenyl)-1-piperazinyl]-2-hydroxypropoxyimino}-2,3-dihydro-1H-benz[e]indene], for which the LD50 at 168 h in data set [1] was over 1000 mg/kg. Besides, the ED50 in the data set on hexobarbital narcosis was found to be 67 mg/kg; with spontaneous motility, 43 mg/kg; in data set [3], 65 mg/kg.
For `CNC1=Nc2ccc(Cl)cc2C(c2ccccc2)=[N+]([O-])C1` [Chlordiazepoxide, reference compound], the median lethal dose (LD50) at 168 h in data set [1] is 650 mg/kg. Also, in the data set on shocks tolerated, the minimal effective dose was found to be 2.5 mg/kg.
As for `CCN(CC)CC(=O)Nc1c(C)cccc1C` [Lidocain, reference compound], the “Local analgesic effect EC50” value in the data set with nervus ischiadicus is recorded as 0.19%.
For `CCN(CC)CCON=C1CCc2c1ccc1ccccc21` [Example 3, 3-[2-(N,N-Diethylamino)-ethoxyimino]-2,3-dihydro-1H-benz[e]indene], the LD50 at 168 h in [1] amounted to 640 mg/kg. For the same compound, the ED50 in the data set with pentetrazole spasm worked out at 96 mg/kg; in the data set with nicotine spasm, 29 mg/kg.
`CC(Cc1ccccc1)NCCC(c1ccccc1)c1ccccc1` (stereo not shown) [Prenylamine, reference compound]: the inhibition in vivo at 2 mg/kg in data set [4] came to 41%. The ED50 in data set [4] (iv) amounted to 6.6 mg/kg.
Regarding `OC(CCN1CCCCC1)(c1ccccc1)C1CCCCC1` (stereo not shown) [Trihexyphenidyl, reference compound], the ED50 with nicotine spasm was found to be 20 mg/kg.
In data set [1], `O=C(NC1CCCCC1)ON=C1CCc2c1ccc1ccccc21` [Example 22, 3-(O-Cyclohexylcarbamoyl)-oxime-2,3-dihydro-1H-benz[e]indene] had a 50% lethal dose (LD50) at 168 h of over 1000 mg/kg. The inhibition in vivo at 2 mg/kg in [4] stood at 59%.
Compound `CCCC(C)(COC(N)=O)COC(N)=O` [Meprobamate, reference compound] had an LD50 at 168 h in data set [1] of 1350 mg/kg. The ED50 is 260 mg/kg with hexobarbital narcosis and 232 mg/kg in the data set on spontaneous motility. For the same compound, the minimal effective dose in the data set on shocks tolerated was 25 mg/kg.
Compound `c1ccc2c3c(ccc2c1)C(=NOCCN1CCCCC1)CC3` [Example 8, 3-[2-(N-Piperidinyl)-ethoxyimlno]-2,3-dihydro-1H-benz[e]indene] displayed an LD50 at 168 h in data set [1] of over 1000 mg/kg. For the same compound, the “effect observed in the given dose” value in the data set on hexobarbital narcosis (dose 100 mg/kg) amounted to 67%. The inhibition in vivo at 2 mg/kg in data set [4] came to 56%.
The compound `CN(C)CCCN1c2ccccc2Sc2ccc(Cl)cc21` [Chlorpromazine, reference compound] gave an LD50 at 168 h in [1] of 315 mg/kg. The ED50 in data set [2] (Rattus norvegicus) worked out at 13.2 mg/kg. Also, in the data set on catalepsy, the “Therapeutic index (Catalepsy MED / Conditioned Reflex ID50)” value is 1.5 and the “Catalepsy MED” value was determined as 20 mg/kg.
For the compound `c1ccc2c3c(ccc2c1)C(=NOCCN1CCCC1)CC3` [Example 7, 3-[2-(N-Pyrpolidinyl)-ethoxyimino]-2,3-dihydro-1H-benz[e]indene], the LD50 at 168 h in data set [1] is 700 mg/kg. Moreover, the “Local analgesic effect EC50” value in the data set on nervus ischiadicus amounted to 0.20%.
The compound `OCCN1CCN(CC(O)CON=C2CCc3c2ccc2ccccc32)CC1` (stereo not shown) [Example 18, 3-{3-[4-(2-Hydroxyethyl)-1-piperazinyl]-2-hydroxypropoxyimino}-2,3-dihydro-1H-benz[e]indene] yielded an LD50 at 168 h in data set [1] of over 1000 mg/kg. In data set [4], the inhibition in vivo at 2 mg/kg amounted to 59%.
On to `c1ccc2c3c(ccc2c1)C(=NOCCCN1CCCCC1)CC3` [Example 9, 3-[3-(N-Piperidinyl)-propoxyimino]-2,3-dihydro-1H-benz[e]indene], for which, in data set [1], the LD50 at 168 h amounted to 320 mg/kg. Further, the “Local analgesic effect EC50” value in the data set with nervus ischiadicus is recorded as 0.20%.
`c1ccc2c3c(ccc2c1)C(=NOCCN1CCOCC1)CC3` [Example 11, 3-[2-(N-Morpholinoethoxyimino)]-2,3-dihydro-1H-benz[e]indene] yielded an LD50 at 168 h in data set [1] of over 1000 mg/kg. For the same compound, the ED50 with pentetrazole spasm worked out at 84 mg/kg. The inhibition in vivo at 2 mg/kg in data set [4] is 54%.
Take `Clc1cccc(N2CCN(CCCON=C3CCc4c3ccc3ccccc43)CC2)c1` [Example 12, 3-{3-[4-(3-Chlorophenyl)-1-piperazinyl]-propoxyimino}-2,3-dihydro-1H-benz[e]indene]: in data set [1], the 50% lethal dose (LD50) at 168 h is over 1000 mg/kg. Further, the “effect observed in the given dose” value in the data set with hexobarbital narcosis (dose 200 mg/kg) worked out at 83%. Besides, the ED50 was about 100 mg/kg with spontaneous motility and 30 mg/kg with pentetrazole spasm. For the same compound, the inhibition in vivo at 2 mg/kg in data set [4] came to 56%.
